From patent publication US4327097A, “Novel penicillins” (Toyama Chemical Co., Ltd., priority 1974, dated 1982)
Values after ≈ are worked out from the molar mass of the structure shown.

Experiments:
Pseudomonas aeruginosa = test: MIC against clinical isolates; type: cell-based; settings: unit assumed
[1] = biological target: β-lactamase, Escherichia freundii GN 346 (Citrobacter freundii, UniProt Q46041); test: Resistant activity against β-lactamase, iodometric assay; type: biochemical; settings: control Cephalorizine = 100
Sequence of β-lactamase, Escherichia freundii GN 346 (Q46041 entry or part of it): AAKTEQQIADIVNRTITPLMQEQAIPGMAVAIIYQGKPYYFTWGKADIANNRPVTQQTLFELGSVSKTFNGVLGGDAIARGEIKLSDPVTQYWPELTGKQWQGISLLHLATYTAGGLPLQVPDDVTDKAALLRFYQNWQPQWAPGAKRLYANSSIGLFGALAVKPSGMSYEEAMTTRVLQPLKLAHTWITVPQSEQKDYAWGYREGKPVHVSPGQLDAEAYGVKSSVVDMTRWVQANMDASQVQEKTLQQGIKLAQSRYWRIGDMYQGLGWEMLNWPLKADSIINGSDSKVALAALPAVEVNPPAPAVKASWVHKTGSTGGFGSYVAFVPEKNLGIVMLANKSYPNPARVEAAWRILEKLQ
Experimental: (§1) (4) Resistant activity of each cephalosporin compound against β-lactamase, Proteus vulgaris GN 76 and Escherichia freundii GN 346:
(§2) The resistant activity of each cephalosporin compound against β-lactamase was measured in the manner described below.
(§3) β-lactamase was prepared from Proteus vulgaris GN 76 and Escherichia freundii GN 346. 10 ml of an overnight culture in Heart Infusion broth was diluted with 100 ml of a medium containing 2 g of yeast extract, 10 g of polypeptone, 2 g of glucose, 7 g of disodium hydrogen phosphate, 2 g of potassium dihydrogen phosphate, 1.2 g of ammonium sulfate and 0.4 g of magnesium sulfate, per liter, and incubated with shaking at 37° C. After incubation of 2 hrs, Penicillin G (50 μg/ml) was added as the inducer, and further incubated for 2 hrs. The resulting cells were collected by centrifugation (5,000 r.p.m.×10 min.) and washed two times with 0.1 M phosphate buffer (pH 7.0). Subsequently, the cells were subjected to sonication (20 KHz, 5 min.) and then centrifuged at 15,000 r.p.m. for 60 min. By using the supernatant of enzyme fluid, the stability of each compound against β-lactamase was determined by the iodometric assay method. Each numeral shown in Table 7-2 is a relative activity value calculated by assuming as 100 the activity of the control Cephalorizine.

[2] = biological target: T1, β-lactamase, Proteus vulgaris GN 76 (Proteus vulgaris, UniProt P52664); test: as above; type: biochemical; settings: control Cephalorizine = 100
T1 construct: By using the supernatant of enzyme fluid; endogenous in cells; host or cells: Proteus vulgaris GN 76 (penicillin G-induced cells, sonicated, 15,000 r.p.m. supernatant)
T1 sequence (P52664 30-300): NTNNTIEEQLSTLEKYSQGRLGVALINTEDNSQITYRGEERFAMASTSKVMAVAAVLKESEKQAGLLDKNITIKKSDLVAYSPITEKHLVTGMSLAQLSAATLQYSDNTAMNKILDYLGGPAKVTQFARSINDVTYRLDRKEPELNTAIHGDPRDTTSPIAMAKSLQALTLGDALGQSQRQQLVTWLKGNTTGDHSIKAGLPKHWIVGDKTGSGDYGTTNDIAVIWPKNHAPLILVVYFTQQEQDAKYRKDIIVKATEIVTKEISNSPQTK
Experimental: as §1, §2, §3

Proteus vulgaris 3027 = test: MIC, plate method, standard strains; type: cell-based; settings: Table 4, standard strain; unit assumed
Experimental: (§4) The minimum inhibitory concentration (MIC) was determined by the plate method disclosed in "Chemotherapy" (Japan), Vol. 16, (1968), pages 98-99. The culture medium used was a Heart infusion agar (pH 7.4). The number of the cells per plate used in the inoculum was 10^4 (10^6 cells/ml).

Klebsiella pneumoniae [3] = test: MIC, plate method, standard strains; type: cell-based; settings: Table 4, standard strain; unit assumed
Experimental: as §4

Escherichia coli NIHJ = test: MIC, plate method, standard strains; type: cell-based; settings: Table 4, standard strain; unit assumed
Experimental: as §4

[4] = test system: Pseudomonas aeruginosa I.F.O.; test: MIC, plate method, standard strains; type: cell-based; settings: Table 4, standard strain; unit assumed
Experimental: as §4

[5] = test system: Staphylococcus aureus 209p; test: MIC, plate method, standard strains; type: cell-based; settings: Table 4, standard strain; unit assumed
Experimental: as §4

Escherichia coli = test: MIC against clinical isolates; type: cell-based; settings: Table 6-2, clinical isolate; unit assumed
Klebsiella pneumoniae [6] = test: MIC against clinical isolates; type: cell-based; settings: Table 6-4, clinical isolate; unit assumed
Staphylococcus aureus = test: MIC against clinical isolates; type: cell-based; settings: Table 6-1, clinical isolate; unit assumed

SMILES: CN1CCN(C(=O)NC(C(=O)NC2C(=O)N3C(C(=O)O)=C(CSc4nnnn4C)CSC23)c2ccccc2)C(=O)C1=O (single isomer, unassigned) [Compound No. 63]
- MIC Pseudomonas aeruginosa GN4 (Pseudomonas aeruginosa; Table 6-3, clinical isolate): 25 mg/L (≈ 40.6 µM)
- MIC Pseudomonas aeruginosa GN 82 (Pseudomonas aeruginosa; Table 6-3, clinical isolate): 50 mg/L (≈ 81.2 µM)
- MIC Pseudomonas aeruginosa GN 376 (Pseudomonas aeruginosa; Table 6-3, clinical isolate): 50 mg/L (≈ 81.2 µM)
- MIC Pseudomonas aeruginosa GN 2565 (Pseudomonas aeruginosa; Table 6-3, clinical isolate): 50 mg/L (≈ 81.2 µM)
- Relative activity (%) against β-lactamase, E. freundii GN 346 [1]: 0.2%
- Relative activity (%) against β-lactamase, Pr. vulgaris GN 76 [2]: 6%

SMILES: CCN1CCN(C(=O)NC(C(=O)NC2C(=O)N3C(C(=O)O)=C(CSc4nnc(C)s4)CSC23)c2ccc(O)cc2)C(=O)C1=O (single isomer, unassigned) [Compound No. 76]
- MIC Proteus vulgaris 3027 (Proteus vulgaris 3027): 3.13 mg/L (≈ 4.73 µM)
- MIC Klebsiella pneumoniae (Klebsiella pneumoniae [3]): 0.79 mg/L (≈ 1.19 µM)
- MIC Escherichia coli NIHJ (Escherichia coli NIHJ): < 0.4 mg/L
- MIC Pseudomonas aeruginosa I.F.O. [4]: 50 mg/L (≈ 75.6 µM)
- MIC Staphylococcus aureus 209p [5]: 1.57 mg/L (≈ 2.37 µM)
- Relative activity (%) against β-lactamase, E. freundii GN 346 [1]: 1%
- Relative activity (%) against β-lactamase, Pr. vulgaris GN 76 [2]: 11%

SMILES: CCN1CCN(C(=O)NC(C(=O)NC2C(=O)N3C(C(=O)O)=C(COC(C)=O)CSC23)c2ccc(O)cc2)C(=O)C1=O (single isomer, unassigned) [Compound No. 81]
- MIC Proteus vulgaris 3027 (Proteus vulgaris 3027): < 1.57 mg/L
- MIC Klebsiella pneumoniae (Klebsiella pneumoniae [3]): < 1.57 mg/L
- MIC Escherichia coli NIHJ (Escherichia coli NIHJ): < 1.57 mg/L
- MIC Pseudomonas aeruginosa I.F.O. [4]: 12.5 mg/L (≈ 21.2 µM)
- MIC Staphylococcus aureus 209p [5]: < 1.57 mg/L
- Relative activity (%) against β-lactamase, E. freundii GN 346 [1]: 0.4%
- Relative activity (%) against β-lactamase, Pr. vulgaris GN 76 [2]: 6%

SMILES: CCN1CCN(C(=O)NC(C(=O)NC2C(=O)N3C(C(=O)O)=C(COC(N)=O)CSC23)c2ccc(O)cc2)C(=O)C1=O (single isomer, unassigned) [Compound No. 84]
- MIC Proteus vulgaris 3027 (Proteus vulgaris 3027): < 1.57 mg/L
- MIC Klebsiella pneumoniae (Klebsiella pneumoniae [3]): < 1.57 mg/L
- MIC Escherichia coli NIHJ (Escherichia coli NIHJ): < 1.57 mg/L
- MIC Pseudomonas aeruginosa I.F.O. [4]: 25 mg/L (≈ 42.3 µM)
- MIC Staphylococcus aureus 209p [5]: < 1.57 mg/L
- Relative activity (%) against β-lactamase, E. freundii GN 346 [1]: 1%
- Relative activity (%) against β-lactamase, Pr. vulgaris GN 76 [2]: 10%

SMILES: O=C(Cc1cccs1)N[C@@H]1C(=O)N2C(C(=O)[O-])=C(C[n+]3ccccc3)CS[C@H]12 [Cephalorizine, reference compound]
- MIC Pseudomonas aeruginosa GN4 (Pseudomonas aeruginosa; Table 6-3, clinical isolate): > 200 mg/L
- MIC Pseudomonas aeruginosa GN 82 (Pseudomonas aeruginosa; Table 6-3, clinical isolate): > 200 mg/L
- MIC Pseudomonas aeruginosa GN 163 (Pseudomonas aeruginosa; Table 6-3, clinical isolate): > 200 mg/L
- MIC Pseudomonas aeruginosa GN 221 (Pseudomonas aeruginosa; Table 6-3, clinical isolate): > 200 mg/L
- MIC Pseudomonas aeruginosa GN 376 (Pseudomonas aeruginosa; Table 6-3, clinical isolate): > 200 mg/L
- MIC Pseudomonas aeruginosa GN 1035 (Pseudomonas aeruginosa; Table 6-3, clinical isolate): > 200 mg/L
- MIC Pseudomonas aeruginosa GN 1091 (Pseudomonas aeruginosa; Table 6-3, clinical isolate): > 200 mg/L
- MIC Pseudomonas aeruginosa GN 2565 (Pseudomonas aeruginosa; Table 6-3, clinical isolate): > 200 mg/L
- MIC Pseudomonas aeruginosa GN 2987 (Pseudomonas aeruginosa; Table 6-3, clinical isolate): > 200 mg/L
- MIC Pseudomonas aeruginosa S-2 (Pseudomonas aeruginosa; Table 6-4, clinical isolate): > 200 mg/L
- MIC Pseudomonas aeruginosa S-3 (Pseudomonas aeruginosa; Table 6-4, clinical isolate): > 200 mg/L
- MIC Pseudomonas aeruginosa S-4 (Pseudomonas aeruginosa; Table 6-4, clinical isolate): > 200 mg/L
- Relative activity (%) against β-lactamase, E. freundii GN 346 [1]: 100%
- Relative activity (%) against β-lactamase, Pr. vulgaris GN 76 [2]: 100%

SMILES: CCN1CCN(C(=O)NC(C(=O)NC2C(=O)N3C(C(=O)O)=C(CSc4nnnn4C)CSC23)c2ccccc2)C(=O)C1=O (stereo not shown) [Compound No. 69]
- MIC Pseudomonas aeruginosa GN4 (Pseudomonas aeruginosa; Table 6-3, clinical isolate): 25 mg/L (≈ 39.7 µM)
- Relative activity (%) against β-lactamase, E. freundii GN 346 [1]: 0.1%
- Relative activity (%) against β-lactamase, Pr. vulgaris GN 76 [2]: 4%

SMILES: CC(=O)OCC1=C(C(=O)O)N2C(=O)[C@@H](NC(=O)[C@H](N)c3ccccc3)[C@H]2SC1 [Sodium Cephaloglycin, reference compound]
- MIC Pseudomonas aeruginosa GN4 (Pseudomonas aeruginosa; Table 6-3, clinical isolate): > 200 mg/L
- MIC Pseudomonas aeruginosa S-4 (Pseudomonas aeruginosa; Table 6-4, clinical isolate): > 200 mg/L
- Relative activity (%) against β-lactamase, E. freundii GN 346 [1]: 0.3%
- Relative activity (%) against β-lactamase, Pr. vulgaris GN 76 [2]: 1300%

SMILES: CC(=O)OCC1=C(C(=O)O)N2C(=O)[C@@H](NC(=O)Cc3cccs3)[C@H]2SC1 [Sodium Cephalothin, reference compound]
- MIC Escherichia coli GN 3435 (Escherichia coli): 6.25 mg/L
- MIC Escherichia coli GN 3452 (Escherichia coli): 12.5 mg/L
- MIC Escherichia coli GN 3481 (Escherichia coli): 12.5 mg/L
- MIC Escherichia coli K-1 (Escherichia coli): 6.25 mg/L
- MIC Escherichia coli K-2 (Escherichia coli): 6.25 mg/L
- MIC Pseudomonas aeruginosa GN (Pseudomonas aeruginosa; Table 6-3, clinical isolate, strain number not given): > 200 mg/L
- MIC Pseudomonas aeruginosa GN4 (Pseudomonas aeruginosa; Table 6-3, clinical isolate): > 200 mg/L
- MIC Pseudomonas aeruginosa GN 82 (Pseudomonas aeruginosa; Table 6-3, clinical isolate): > 200 mg/L
- MIC Pseudomonas aeruginosa GN 163 (Pseudomonas aeruginosa; Table 6-3, clinical isolate): > 200 mg/L
- MIC Pseudomonas aeruginosa GN 221 (Pseudomonas aeruginosa; Table 6-3, clinical isolate): > 200 mg/L
- MIC Pseudomonas aeruginosa GN 376 (Pseudomonas aeruginosa; Table 6-3, clinical isolate): > 200 mg/L
- MIC Pseudomonas aeruginosa GN 1035 (Pseudomonas aeruginosa; Table 6-3, clinical isolate): > 200 mg/L
- MIC Pseudomonas aeruginosa GN 1091 (Pseudomonas aeruginosa; Table 6-3, clinical isolate): > 200 mg/L
- MIC Pseudomonas aeruginosa GN 2565 (Pseudomonas aeruginosa; Table 6-3, clinical isolate): > 200 mg/L
- MIC Pseudomonas aeruginosa GN 2987 (Pseudomonas aeruginosa; Table 6-3, clinical isolate): > 200 mg/L
- MIC Pseudomonas aeruginosa S-1 (Pseudomonas aeruginosa; Table 6-4, clinical isolate): > 200 mg/L
- MIC Pseudomonas aeruginosa S-2 (Pseudomonas aeruginosa; Table 6-4, clinical isolate): > 200 mg/L
- MIC Pseudomonas aeruginosa S-3 (Pseudomonas aeruginosa; Table 6-4, clinical isolate): > 200 mg/L
- MIC Pseudomonas aeruginosa S-4 (Pseudomonas aeruginosa; Table 6-4, clinical isolate): > 200 mg/L
- MIC Klebsiella pneumoniae GN 917 (Klebsiella pneumoniae [6]): 3.13 mg/L
- MIC Klebsiella pneumoniae GN 4081 (Klebsiella pneumoniae [6]): 12.5 mg/L
- MIC Klebsiella pneumoniae GN 4117 (Klebsiella pneumoniae [6]): 6.25 mg/L
- Relative activity (%) against β-lactamase, E. freundii GN 346 [1]: 17%
- Relative activity (%) against β-lactamase, Pr. vulgaris GN 76 [2]: 105%
- MIC Staphylococcus aureus F-1 (Staphylococcus aureus): < 0.4 mg/L
- MIC Staphylococcus aureus F-2 (Staphylococcus aureus): < 0.4 mg/L
- MIC Staphylococcus aureus F-3 (Staphylococcus aureus): < 0.4 mg/L
- MIC Staphylococcus aureus F-4 (Staphylococcus aureus): < 0.4 mg/L
- MIC Staphylococcus aureus F-5 (Staphylococcus aureus): 1.56 mg/L
- MIC Staphylococcus aureus MS 8588 (Staphylococcus aureus): < 0.4 mg/L
- MIC Staphylococcus aureus MS 8596 (Staphylococcus aureus): < 0.4 mg/L
- MIC Staphylococcus aureus MS 8619 (Staphylococcus aureus): < 0.4 mg/L
- MIC Staphylococcus aureus MS 8684 (Staphylococcus aureus): < 0.4 mg/L
- MIC Staphylococcus aureus MS 8713 (Staphylococcus aureus): < 0.4 mg/L
